The results in this text go back to patent US20260022143A1, “Cyclic Peptide Inhibitors of IL-23” (JANSSEN PHARMACEUTICA NV, priority 2022, published 2026).

The structures appear in SMILES notation. Counter-ions that a name gives are not always drawn. Positions of bridges follow the written chain, without caps; N, C: chain ends. Non-standard residues stand in square brackets, D forms with d. Residues, ends and D or L forms follow the SMILES beside them. ξ: configuration not given here. *: point of attachment. Trp(7-(3-AcNH-Ph)) = CC(=O)Nc1cccc(-c2cccc3c(C[C@H](N)C(=O)O)c[nH]c23)c1; Me3N+(CH2)2O(CH2)2O(CH2)2CO = C[N+](C)(C)CCOCCOCCC(=O)*; Phe(4-N3) = [N-]=[N+]=Nc1ccc(C[C@H](N)C(=O)O)cc1; Trp(7-Me) = Cc1cccc2c(C[C@H](N)C(=O)O)c[nH]c12; Hexanoyl(6-NMe3+) = C[N+](C)(C)CCCCCC(=O)*; 2Nal = N[C@@H](Cc1ccc2ccccc2c1)C(=O)O; X22 = CN1CC[N+](C)(CCOCCOCC*)CC1; 3Pal = N[C@@H](Cc1cccnc1)C(=O)O; ξThr(3R) = C[C@@H](O)C(N)C(=O)O; Cit = NC(=O)NCCC[C@H](N)C(=O)O; Lys(Me) = CNCCCC[C@H](N)C(=O)O; Pen = CC(C)(S)[C@H](N)C(=O)O; X44 = c1cc[n+](CCOCCOCC*)cc1; Thp = NC1(C(=O)O)CCOCC1; X3 = C[N+](C)(C)CCCCC*; Me2NCH2CH2 = CN(C)CC*; Tfa = O=C(C(F)(F)F)*; Sar = CNCC(=O)O Bounds are passed on as bounds.

One data set concerns the target T1, IL-23R (Homo sapiens, UniProt Q5VWK5).
T1 construct: host or cells: HEK293
T1 sequence (Q5VWK5 24-629): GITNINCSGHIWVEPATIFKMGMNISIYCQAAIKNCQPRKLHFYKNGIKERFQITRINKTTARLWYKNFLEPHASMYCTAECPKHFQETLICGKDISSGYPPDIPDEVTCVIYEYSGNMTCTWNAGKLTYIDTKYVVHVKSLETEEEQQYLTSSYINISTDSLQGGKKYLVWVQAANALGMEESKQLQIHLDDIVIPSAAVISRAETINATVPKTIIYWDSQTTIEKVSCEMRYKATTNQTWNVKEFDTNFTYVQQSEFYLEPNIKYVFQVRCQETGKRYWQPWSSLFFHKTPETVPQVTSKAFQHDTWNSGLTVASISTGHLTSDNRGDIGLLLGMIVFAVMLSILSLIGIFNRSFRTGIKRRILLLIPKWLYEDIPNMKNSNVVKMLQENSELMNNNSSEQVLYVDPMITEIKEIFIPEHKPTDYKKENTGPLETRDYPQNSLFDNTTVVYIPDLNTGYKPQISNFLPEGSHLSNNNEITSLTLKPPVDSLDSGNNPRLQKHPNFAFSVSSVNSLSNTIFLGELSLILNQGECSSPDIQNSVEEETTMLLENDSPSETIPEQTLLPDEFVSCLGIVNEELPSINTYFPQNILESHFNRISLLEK
As to the kind of experiment: IL23R Reporter Assay. Format: cell-based. Conditions: HEK293 cells containing IL-23R, IL-12RP1 and STAT-inducible firefly luciferase reporter; 10 ng/mL IL-23 (EC90); 5 h at 37° C.; read-out: IL23R Reporter Assay.

Data set [1] is described as follows: Exposed Polar Surface Area (EPSA). Format: physicochemical. The settings on record: SFC on Chirex 3014 column; sample 1 mM DMSO stock; read-out: EPSA. The essentials: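 EPSA, in Å^2, is read from SFC retention time through a linear relationship established with eight calibration standards. Separation uses a Chirex 3014 stationary phase, 35 °C, 14 MPa back pressure, and a 5–60% methanol/ammonium formate modifier gradient in CO2.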

Regarding `CC(=O)Nc1cccc(-c2cccc3c(C[C@@H]4NC(=O)[C@H]([C@@H](C)O)NC(=O)[C@H](CC(=O)N(C)C)NC(=O)[C@@H](NC(=O)CCOCCOCC[N+](C)(C)C)C(C)(C)SSC(C)(C)[C@@H](C(=O)N[C@@H](Cc5ccc(OCCCCC[N+](C)(C)C)cc5)C(=O)N[C@@H](Cc5ccc6ccccc6c5)C(=O)NC5(C(=O)N[C@@H](CCCCN(C)C(C)=O)C(=O)N[C@@H](CC(N)=O)C(=O)N[C@@H](Cc6cccnc6)C(=O)N(C)CC(=O)N(C)C)CCOCC5)NC(=O)[C@H](CCCCN(C)C(C)=O)NC4=O)c[nH]c23)c1` [compound 294, cPEG3aCO-Pen(3)-N(N(me)2)-T-7(3NAcPh)W-K(NMeAc)-Pen(3)-TMAPF-2Nal-THP-K(NMeAc)-N-3Pya-Sar-CON(Me)2] ({Me3N+(CH2)2O(CH2)2O(CH2)2CO}-[Pen]D(NMe2)T[Trp(7-(3-AcNH-Ph))][Lys(Me)](Ac)[Pen]Y(X3)[2Nal][Thp][Lys(Me)](Ac)N[3Pal][Sar]-NMe2; disulfide 1-6 (inferred)), the IC50 on IL-23R came to 1.2 nM. In addition, the EPSA in data set [1] worked out at 157 A^2.
For `CC(=O)N(C)CCCC[C@@H]1NC(=O)[C@H](Cc2c[nH]c3c(C)cccc23)NC(=O)[C@H]([C@@H](C)O)NC(=O)[C@H](CC(=O)N(C)C)NC(=O)[C@@H](NC(=O)CCOCCOCC[N+](C)(C)C)C(C)(C)SSC(C)(C)[C@@H](C(=O)N[C@@H](Cc2ccc(OCCOCCOCC[N+]3(C)CCN(C)CC3)cc2)C(=O)N[C@@H](Cc2ccc3ccccc3c2)C(=O)NC2(C(=O)N[C@@H](CCCCN(C)C(C)=O)C(=O)N[C@@H](CC(N)=O)C(=O)N[C@@H](Cc3cccnc3)C(=O)N(C)CC(=O)N(C)C)CCOCC2)NC1=O` [compound 224, cPEG3aCO-Pen(3)-N(N(Me)2)-T-7MeW-K(NMeAc)-Pen(3)-MPzPEG3F-2Nal-THP-K(NMeAc)-N-3Pya-Sar-CON(Me)2] ({Me3N+(CH2)2O(CH2)2O(CH2)2CO}-[Pen]D(NMe2)T[Trp(7-Me)][Lys(Me)](Ac)[Pen]Y(X22)[2Nal][Thp][Lys(Me)](Ac)N[3Pal][Sar]-NMe2; disulfide 1-6) the same measures were 3 nM and 139 A^2.
As for `CC(=O)N(C)CCCC[C@@H]1NC(=O)[C@H](CC(C)C)NC(=O)[C@H]([C@@H](C)O)NC(=O)[C@H](CC(=O)N(C)C)NC(=O)[C@@H](NC(=O)CCOCCOCC[N+](C)(C)C)C(C)(C)SSC(C)(C)[C@@H](C(=O)N[C@@H](Cc2ccc(OCCCCC[N+](C)(C)C)cc2)C(=O)N[C@@H](Cc2ccc3ccccc3c2)C(=O)NC2(C(=O)N[C@@H](CCCCN(C)C(C)=O)C(=O)N[C@@H](CC(N)=O)C(=O)N[C@@H](Cc3cccnc3)C(=O)N(C)CC(=O)N(C)C)CCOCC2)NC1=O` [compound 511, cPEG3aCO-Pen(3)-N(N(Me)2)-T-L-K(NMeAc)-Pen(3)-TMAPF-2Nal-THP-K(NMeAc)-N-3Pya-Sar-CONMe2] ({Me3N+(CH2)2O(CH2)2O(CH2)2CO}-[Pen]D(NMe2)TL[Lys(Me)](Ac)[Pen]Y(X3)[2Nal][Thp][Lys(Me)](Ac)N[3Pal][Sar]-NMe2; disulfide 1-6), the IC50 on IL-23R is above 16600 nM. The EPSA in data set [1] came to 198 A^2.
For `CC(=O)N(C)CCCC[C@@H]1NC(=O)[C@H](Cc2c[nH]c3c(C)cccc23)NC(=O)[C@H]([C@@H](C)O)NC(=O)[C@H](CC(=O)N(C)C)NC(=O)[C@@H](NC(=O)CCOCCOCC[N+](C)(C)C)C(C)(C)SSC(C)(C)[C@@H](C(=O)N[C@@H](Cc2ccc(OCCCCC[N+](C)(C)C)cc2)C(=O)N[C@@H](Cc2ccc3ccccc3c2)C(=O)NC2(C(=O)N[C@@H](CCCNC(N)=O)C(=O)N[C@@H](CC(N)=O)C(=O)N[C@@H](Cc3cccnc3)C(=O)N(C)CC(=O)N(C)C)CCOCC2)NC1=O` [compound 327, cPEG3aCO-Pen(3)-N(N(Me)2)-T-7MeW-K(NMeAc)-Pen(3)-TMAPF-2Nal-THP-Cit-N-3Pya-Sar-CON(Me)2] ({Me3N+(CH2)2O(CH2)2O(CH2)2CO}-[Pen]D(NMe2)T[Trp(7-Me)][Lys(Me)](Ac)[Pen]Y(X3)[2Nal][Thp][Cit]N[3Pal][Sar]-NMe2; disulfide 1-6) the same measures were 1.2 nM and 157 A^2.
In the same order, the values of `CC(=O)N(C)CCCC[C@H](NC(=O)[C@H](CC(C)C)NC(=O)[C@H](Cc1ccc2ccccc2c1)NC(=O)[C@H](Cc1ccc(OCCCCC[N+](C)(C)C)cc1)NC(=O)[C@H]1NC(=O)[C@H](CCCCN(C)C(C)=O)NC(=O)[C@H](Cc2c[nH]c3c(C)cccc23)NC(=O)C([C@@H](C)O)NC(=O)[C@H](CC(=O)N(C)C)NC(=O)[C@@H](NC(=O)CCOCCOCC[N+](C)(C)C)C(C)(C)SSC1(C)C)C(=O)N[C@@H](CC(N)=O)C(=O)N[C@@H](Cc1cccnc1)C(=O)N(C)CC(=O)N(C)C` (stereo partly drawn) [compound 487, cPEG3aCO-Pen(3)-N(N(Me)2)-T-7MeW-K(NMeAc)-Pen(3)-TMAPf-2Nal-L-K(NMeAc)-N-3Pya-Sar-CON(Me)2] ({Me3N+(CH2)2O(CH2)2O(CH2)2CO}-[Pen]D(NMe2)[ξThr(3R)][Trp(7-Me)][Lys(Me)](Ac)[Pen]Y(X3)[2Nal]L[Lys(Me)](Ac)N[3Pal][Sar]-NMe2; disulfide 1-6) are 3.4 nM and 164 A^2.
For `Cc1cccc2c(C[C@@H]3NC(=O)[C@H]([C@@H](C)O)NC(=O)[C@H](CC(=O)N(C)C)NC(=O)[C@@H](NC(=O)[C@@H](CCCCNC(=O)CCCCC[N+](C)(C)C)NC(=O)C(F)(F)F)C(C)(C)SSC(C)(C)[C@@H](C(=O)N[C@@H](Cc4ccc(OCCN(C)C)cc4)C(=O)N[C@@H](Cc4ccc5ccccc5c4)C(=O)NC4(C(=O)N[C@@H](CCC(=O)N(C)C)C(=O)N[C@@H](CC(N)=O)C(=O)N[C@@H](Cc5cccnc5)C(=O)N(C)CC(=O)N(C)C)CCOCC4)NC(=O)[C@H](CCC(=O)N(C)C)NC3=O)c[nH]c12` [compound 96, CF3CO-k(5cpa)-Pen(3)-N(N(Me)2)-T-7MeW-Q(N(Me)2)-Pen(3)-AEF(N(Me)2)-2Nal-THP-Q(N(Me)2)-N-3Pya-Sar-CON(Me)2] (Tfa-[dK](Hexanoyl(6-NMe3+))[Pen]D(NMe2)T[Trp(7-Me)]E(NMe2)[Pen]Y(Me2NCH2CH2)[2Nal][Thp]E(NMe2)N[3Pal][Sar]-NMe2; disulfide 2-7) the same measures were 4.6 nM and 139 A^2.
As for `CC(=O)N(C)CCCC[C@@H]1NC(=O)[C@H](Cc2c[nH]c3c(C)cccc23)NC(=O)[C@H]([C@@H](C)O)NC(=O)[C@H](CC(=O)N(C)C)NC(=O)[C@@H](NC(=O)CCOCCOCC[N+](C)(C)C)C(C)(C)SSC(C)(C)[C@@H](C(=O)N[C@@H](Cc2ccc(N=[N+]=[N-])cc2)C(=O)N[C@@H](Cc2ccc3ccccc3c2)C(=O)NC2(C(=O)N[C@@H](CCCCN(C)C(C)=O)C(=O)N[C@@H](CC(N)=O)C(=O)N[C@@H](Cc3cccnc3)C(=O)N(C)CC(=O)N(C)C)CCOCC2)NC1=O` [compound 331, cPEG3aCO-Pen(3)-N(N(Me)2)-T-7MeW-K(NMeAc)-Pen(3)-F(4N3)-2Nal-THP-K(NMeAc)-N-3Pya-Sar-CON(Me)2] ({Me3N+(CH2)2O(CH2)2O(CH2)2CO}-[Pen]D(NMe2)T[Trp(7-Me)][Lys(Me)](Ac)[Pen][Phe(4-N3)][2Nal][Thp][Lys(Me)](Ac)N[3Pal][Sar]-NMe2; disulfide 1-6), the IC50 on IL-23R turned out to be 1.2 nM. For the same molecule, the EPSA in data set [1] was 153 A^2.
In the same order, the values of `CC(=O)N(C)CCCC[C@@H]1NC(=O)[C@H](Cc2c[nH]c3c(C)cccc23)NC(=O)[C@H]([C@@H](C)O)NC(=O)[C@H](CC(=O)N(C)C)NC(=O)[C@@H](NC(=O)CCOCCOCC[N+](C)(C)C)C(C)(C)SSC(C)(C)[C@@H](C(=O)N[C@@H](Cc2ccc(OCCOCCOCC[n+]3ccccc3)cc2)C(=O)N[C@@H](Cc2ccc3ccccc3c2)C(=O)NC2(C(=O)N[C@@H](CCCCN(C)C(C)=O)C(=O)N[C@@H](CC(N)=O)C(=O)N[C@@H](Cc3cccnc3)C(=O)N(C)CC(=O)N(C)C)CCOCC2)NC1=O` [compound 297, cPEG3aCO-Pen(3)-N(N(Me)2)-T-7MeW-K(NMeAc)-Pen(3)-NPyPEG3F-2Nal-THP-K(NMeAc)-N-3Pya-Sar-CON(Me)2] ({Me3N+(CH2)2O(CH2)2O(CH2)2CO}-[Pen]D(NMe2)T[Trp(7-Me)][Lys(Me)](Ac)[Pen]Y(X44)[2Nal][Thp][Lys(Me)](Ac)N[3Pal][Sar]-NMe2; disulfide 1-6 (inferred)) are 1.8 nM and 153 A^2.
For `CC(=O)N(C)CCCC[C@@H]1NC(=O)[C@H](Cc2c[nH]c3c(C)cccc23)NC(=O)[C@H]([C@@H](C)O)NC(=O)[C@H](CC(=O)N(C)C)NC(=O)[C@@H](NC(=O)CCOCCOCC[N+](C)(C)C)C(C)(C)SSC(C)(C)[C@@H](C(=O)N[C@@H](Cc2ccc(OCCCCC[N+](C)(C)C)cc2)C(=O)N[C@@H](CC(C)C)C(=O)NC2(C(=O)N[C@@H](CCCCN(C)C(C)=O)C(=O)N[C@@H](CC(N)=O)C(=O)N[C@@H](Cc3cccnc3)C(=O)N(C)CC(=O)N(C)C)CCOCC2)NC1=O` [compound 499, cPEG3aCO-Pen(3)-N(N(Me)2)-T-7MeW-K(NMeAc)-Pen(3)-TMApF-L-THP-K(NMeAc)-N-3Pya-Sar-CON(Me)2] ({Me3N+(CH2)2O(CH2)2O(CH2)2CO}-[Pen]D(NMe2)T[Trp(7-Me)][Lys(Me)](Ac)[Pen]Y(X3)L[Thp][Lys(Me)](Ac)N[3Pal][Sar]-NMe2; disulfide 1-6), the IC50 on IL-23R was above 1630 nM. In data set [1], the EPSA is 133 A^2.
